Test results published in patent publication US20240376062A1, “COMPOUNDS FOR THE TREATMENT OF ALZHEIMER’S DISEASE” (BOARD OF TRUSTEES OF MICHIGAN STATE UNIVERSITY, priority 2021, published 2024).
Entries after “also recorded” stand apart in the source; their conditions may differ.

Key:
p-tau [1] = molecular target: T1, p-tau (Homo sapiens, UniProt P10636); test: Thioflavin-S (ThS) fluorescence assay of p-tau fibril formation; assay type: biochemical; conditions: compound 100 μM, about 15x molar excess to p-tau
T1 construct: made in house
T1 sequence (P10636 1-412 isoform P10636-7): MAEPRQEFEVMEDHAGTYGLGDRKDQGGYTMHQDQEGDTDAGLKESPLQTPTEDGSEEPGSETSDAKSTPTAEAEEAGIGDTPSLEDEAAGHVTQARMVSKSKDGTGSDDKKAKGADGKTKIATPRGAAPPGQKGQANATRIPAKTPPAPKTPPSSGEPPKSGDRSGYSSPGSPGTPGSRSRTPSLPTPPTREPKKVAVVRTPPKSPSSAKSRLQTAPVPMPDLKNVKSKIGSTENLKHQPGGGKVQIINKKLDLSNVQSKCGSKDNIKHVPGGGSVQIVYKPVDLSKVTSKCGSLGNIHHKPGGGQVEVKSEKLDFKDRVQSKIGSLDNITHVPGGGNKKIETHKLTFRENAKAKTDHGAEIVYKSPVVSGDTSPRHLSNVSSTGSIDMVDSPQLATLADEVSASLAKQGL
Procedure: p-Tau from the stock solution of 1 mM was added to 20 mM Tris buffer (pH 7.4) with 1 mM DTT and transferred to a black microplate 384 well plate with flat bottom and medium binding (greiner bio-one, ref 784076). Each well contained a final volume of 10 μL with a peptide final concentration of 6 μM. Experiments in the presence of p-tau were initiated by adding a solution of ThS at a final concentration of 20 μM with different compounds. Final compound concentrations ranged from 25 to 100 μM. The background sample consisted of 0.1% DMSO in buffer without p-tau. The plate was sealed and read with the excitation and emission wavelengths set at 440 and 490 nm, respectively, with a Synergy HT multi-mode microplate reader (BioTek, Winooski, VT). Measurements were taken at 37° C. every 10 min for 16 hours. Samples were measured in three replicates and the experiments were repeated three times using different p-tau stock solutions. For each time point, arbitrary units of fluorescence were calculated from the mean values normalized against the maximum value in each completed assay. Arbitrarily, the maximum value (100%) for the fluorescence intensity was established for p-tau with 0.1% DMSO.
The structure of three newly synthesized small molecules representing the sulfonamide (JF-19-73), sulfonylurea (JF(Tr)-20-58), and urea (JF-19-43, JF(TT)-19-5) series are presented in FIG. 1. These molecules were assessed for their anti-aggregation and cytoprotection effects using biophysical methods and survival assays on human neuroblastoma SH-SY5Y cells, respectively. […] First, the formation of fibrils was monitored by measuring the fluorescence intensity of the dye thioflavin-S (ThS) with the excitation and emission wavelengths set at 440 and 490 nm. The fluorescent dye ThS specifically binds to the cross β-sheet structure of protein fibrils, providing a strong fluorescence emission.^[14] Since the fluorescence emission increases with fibrils formation, the kinetic process of fibrillization is routinely assessed using ThS fluorescence as the primary assays to screen for the candidate inhibitors. […]

p-tau [2] = molecular target: T1, p-tau; test: Photo-induced cross-linking (PICUP) assay of p-tau oligomerization; assay type: biochemical; conditions: for dose dependence of inhibition of p-tau oligomerization: dose response experiments, FIG. 3 lower panel (B); for inhibition of p-tau oligomer formation (cross-linking): p-tau 6 μM preincubated with compound 50 μM for 24 hours
Procedure: p-Tau was diluted in 10 mM phosphate buffer (pH 7.4) at a final concentration of 10 μM and preincubated with different compounds for 24 h prior cross-linking. Different compounds were added to the p-tau solution at a final concentration of 12.5, 25, or 50 μM. The control consisted of samples without Ru(bpy), light exposition, and without compound. The reaction buffer consisted of 300 μM Ru(bpy), 6 mM ammonium persulfate. Prior light exposure, p-tau was diluted to a final concentration of 6 μM. Cross-linking was induced by irradiation, for 3 s, at a final volume of 20 μL, with a 53 W (120 V) incandescent lamp installed in a homemade dark-box. After irradiation, 8.3 μL of Lammeli loading buffer was immediately added to the solution, followed by incubation at 95° C. for 10 min. The cross-linked samples were separated on a 10% SDS-Page gel and visualized by Coomassie blue staining.
(§1) To examine how JF-19-73 affected p-tau fibrillization, two approaches were taken. Firstly, we used the Photo-Induced Cross-linking of Unmodified Proteins (PICUP) assay to investigate p-tau oligomerization under the influence of JF19-73 (FIG. 3). After being subjected to short light exposure, p-tau was cross-linked and resolved as a smear of higher molecular weight (lane 3, FIG. 3).^[6c] […] We further perform transmission electron microscopy to visualize the extent and morphology of p-tau fibrils.

p-tau [3] = molecular target: T1, p-tau; test: Transmission electron microscopy of p-tau fibrils; assay type: biochemical; conditions: p-tau 20 μM, compound 100 μM, 24 hours, vs. DMSO
Procedure: […] A volume of 10 μL was applied on a 400-mesh Formvar-carbon-coated cooper grid (Electron Microscopy Sciences, Hatfield, PA) to confirm the presence or the absence of fibrils. The grids were incubated for 1 minute and washed three times with distilled water. They were carefully air-dried and incubated for 1 minute in a fresh solution of 1% uranyl acetate. Samples were air-dried and observed using a transmission microscope (JEOL 1400 Flash, Japan). Pictures were acquired at an accelerating voltage of 100 kV and magnification of 40 and 80 k.
as §1

SH-SY5Y cells = test: Cell viability assay, protection from aggregated p-tau and compound toxicity; assay type: cell-based, human; conditions: for protection of SH-SY5Y cells against p-tau cytotoxicity: 0.8 μM p-tau, compound 8 μM (molar ratio 1:10)
Procedure: Cells were maintained in a 37° C., 5% CO2 incubator, in exponential growth, for the duration of experimentation. For this assay, cells were seeded in 96-well microtiter plates at a density of 5×10^3 SH-SY5Y cells per well for 24 h. Compounds freshly solubilized in DMSO were diluted in culture medium and aliquots containing sequential dilution of drugs were added subsequently after stimulation with 2 μM of p-tau. p-Tau was dissolved and incubated in 10 mM PBS (pH 7.4, 25° C.) 24 h before addition to cells. Compounds were tested at 2, 4, and 8 μM and DMSO concentration was maintained at 0.1% to avoid growth inhibition. […] Plates were incubated for 24 h in the presence of compounds and p-Tau. Cell-based assays were performed as previously described ((Liu et al, 2020, Sci. Rep. Hyperphosphorylated tau aggregation and cytotoxicity modulators screen identified prescription drugs linked to Alzheimer's disease and cognitive functions. Liu M, Dexheimer T, Sui D, Hovde S, Deng X, Kwok R, Bochar D A, Kuo M H. Sci Rep. 2020 Oct. 6; 10(1):16551. doi: 10.1038/s41598-020-73680-2.). The cell viability was calculated from fluorescence measured with a Synergy HT multi-mode microplate reader (BioTek, Winooski, VT). The data from experiments conducted in triplicate were corrected for the background fluorescence of the medium and was expressed as the mean percentage of fluorescence obtained for control DMSO-treated cells. The growth inhibition percentage was calculated with reference to DMSO-treated cells for each compound concentration. The results were obtained from at least three separated experiments. The cell viability assay was considered valid when the variability among data for a given set of conditions, within the same experiment, was less than 10% with respect to the mean value. All values represent means±SD (n=3).
Cell viability assays were performed using SH-SY5Y cells to evaluate the potential of the molecules representing the sulfonamide, sulfonylurea, and urea series to protect cells from aggregated p-tau (FIG. 5). The survival rate was assessed after treatment with 0.8 μM p-tau in the absence or the presence of JF-19-73, JF-19-43 (urea), JF(TT)-20-58 at 8 μM. […] It has been reported previously (Liu et al, 2020, Sci. Rep. Hyperphosphorylated tau aggregation and cytotoxicity modulators screen identified prescription drugs linked to Alzheimer's disease and cognitive functions. Liu M, Dexheimer T, Sui D, Hovde S, Deng X, Kwok R, Bochar D A, Kuo M H. Sci Rep. 2020 Oct. 6; 10(1):16551. doi: 10.1038/s41598-020-73680-2.) that not all effective p-tau aggregation inhibitors, as indicated by significant reductions in ThSmax, were cytoprotective.

[4] = Solubility in aqueous phase; assay type: physicochemical

solubility (S) in aqueous phase [4] [µM] | inhibition of p-tau oligomer formation (cross-linking) (p-tau [2]; listed as JF19-43) | inhibition of p-tau oligomer formation (cross-linking) (p-tau [2]; listed as JF(T)-19-58) | SMILES | inhibition of p-tau fibril formation (ThS fluorescence intensity, ThSmax) (p-tau [1]) | dose dependence of inhibition of p-tau oligomerization (p-tau [2]) | inhibition of p-tau oligomer formation (cross-linking) (p-tau [2]) | p-tau fibril formation by TEM (p-tau [3]) | protection of SH-SY5Y cells against p-tau cytotoxicity (SH-SY5Y cells) | toxicity of compound to SH-SY5Y cells (SH-SY5Y cells; compound 8 μM without p-tau) | protection against p-tau cytotoxicity, dose dependence (SH-SY5Y cells; compound 2, 4 and 8 μM)
> 100 | – | – | O=S(=O)(Nc1ccc2c(c1)Cc1ccccc1-2)c1ccc(Cl)cc1 [JF-19-73] | inhibits fibril; also recorded: most potent to inhibit fibril formation | dose-dependent manner | inhibits fibril (ThSmax) and oligomer (Oligo. Inh.) formation; also recorded: stopped formation of p-tau oligomers; also recorded: effectively prevented this crosslinking | less fibrils; also recorded: clear effects on p-tau fibrillization | protects SH-SY5Y cells against p-tau | non-toxic to cells | protected cell in a dose-dependent manner
– | – | – | O=C(Nc1ccccc1)Nc1ccc2c(c1)Cc1ccccc1-2 [JF(TT)-19-5] | – | negative control | had no effect | – | – | – | –
– | – | – | O=C(Nc1ccc(Cl)cc1)Nc1ccc2c(c1)Cc1ccccc1-2 [JF(NBMI)-20-45] | not a potent inhibitor of p-tau aggregation | – | – | – | – | – | –
– | high molecular weight p-tau oligomers | – | CCNC(=O)Nc1ccc2c(c1)Cc1ccccc1-2 [JF-19-43] | – | – | had no effect | – | negative controls | – | –
– | – | had no effect | O=C(Nc1ccc2c(c1)Cc1ccccc1-2)NS(=O)(=O)c1ccc(Cl)cc1 [JF(TT)-20-58] | not a potent inhibitor of p-tau aggregation | – | high molecular weight p-tau oligomers | – | negative controls | – | –
